The record followed here is ChEMBL document CHEMBL1144924, “Calculation of the binding affinity of beta-secretase inhibitors using the linear interaction energy method” (J Med Chem, 2003).

pKi: −log10 of the molar value.

The target in this assay is Beta-secretase 1 (Homo sapiens, UniProt P56817). In words: Binding affinity for human brain memapsin 2 beta-Secretase (BACE).
Beta-secretase 1, sequence (P56817 whole entry): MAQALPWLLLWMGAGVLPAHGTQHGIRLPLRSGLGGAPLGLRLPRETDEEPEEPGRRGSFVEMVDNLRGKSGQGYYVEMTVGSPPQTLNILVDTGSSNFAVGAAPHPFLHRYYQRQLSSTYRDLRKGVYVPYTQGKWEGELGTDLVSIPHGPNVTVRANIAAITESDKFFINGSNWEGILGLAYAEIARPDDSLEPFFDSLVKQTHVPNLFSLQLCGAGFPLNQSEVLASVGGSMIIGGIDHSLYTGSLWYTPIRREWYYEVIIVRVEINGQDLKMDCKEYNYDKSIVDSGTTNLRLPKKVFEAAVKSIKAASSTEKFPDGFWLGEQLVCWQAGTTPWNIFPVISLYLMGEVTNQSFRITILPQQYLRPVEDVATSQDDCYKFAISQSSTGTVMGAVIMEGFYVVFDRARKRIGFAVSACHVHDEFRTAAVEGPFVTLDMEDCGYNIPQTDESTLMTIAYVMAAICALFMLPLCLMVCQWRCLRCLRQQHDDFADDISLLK

The term pKi denotes the negative decadic logarithm of the Ki, by convention in mol/L. Higher therefore signals a low Ki. `CSCCC(NC(=O)OC(C)(C)C)C(=O)N[C@@H](CC(C)C)C(O)CC(C)C(=O)NC(C(=O)NCc1ccccc1)C(C)C` (some centres undefined) showed a pKi of 5.24.
The same measure for `CC(C)C[C@H](NC(=O)[C@H](CC(N)=O)NC(=O)OC(C)(C)C)C(O)CC(C)C(=O)NC(C(=O)NCc1ccccc1)C(C)C` (some centres undefined): 5.50; for `CC(C)C[C@H](NC(=O)[C@H](CS(C)(=O)=O)NC(=O)OC(C)(C)C)C(O)CC(C)C(=O)NC(C(=O)NCc1ccccc1)C(C)C` (some centres undefined): 5.95; for `CSCC(NC(=O)[C@@H](NC(=O)OC(C)(C)C)C(C)C)C(=O)N[C@@H](CC(C)C)C(O)CC(C)C(=O)NC(C(=O)NCc1ccccc1)C(C)C` (some centres undefined): 7.30.
For `CC(C)C[C@H](NC(=O)[C@H](CC(N)=O)NC(=O)OC(C)(C)C)C(O)CC(C)C(=O)NC(C)C(=O)NCc1ccccc1` (some centres undefined) the value was 4.65; for `CSCCC(NC(=O)[C@@H](NC(=O)OC(C)(C)C)C(C)C)C(=O)N[C@@H](CC(C)C)C(O)CC(C)C(=O)NC(C(=O)NCc1ccccc1)C(C)C` (some centres undefined), 8.60; for `CC(C)C[C@H](NC(=O)C(CS(C)(=O)=O)NC(=O)[C@@H](NC(=O)OC(C)(C)C)C(C)C)C(O)CC(C)C(=O)NC(C(=O)NCc1ccccc1)C(C)C` (some centres undefined), 8.03.
For `CC(C)C[C@H](NC(=O)C(CC(N)=O)NC(=O)[C@@H](NC(=O)OC(C)(C)C)C(C)C)C(O)CC(C)C(=O)NC(C(=O)NCc1ccccc1)C(C)C` (some centres undefined) the value was 8.23; for `CC(C)C[C@H](NC(=O)C(CC(N)=O)NC(=O)[C@@H](NC(=O)OC(C)(C)C)C(C)C)C(O)CC(C)C(=O)NC(C)C(=O)NCc1ccccc1` (some centres undefined), 7.21.
